Test results as given in ChEMBL document CHEMBL1201862, “PubChem BioAssay data set” (2004).
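Results reflect a 48-hour exposure of cells in 96-well plates to compound at five concentrations. GI50 marks 50% less growth.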 The source made the active and inactive calls. Rule as the data show it: active = GI50 up to about 1.1 µM and inactive = higher.

Key:
Test in all cases: NCI-60 cell line screen, 48 h
786-0 = system: 786-0
A498 = system: A498
A549 = system: A549
CAKI-1 = system: CAKI-1
CCRF-CEM = system: CCRF-CEM
COLO 205 = system: COLO 205
DLD-1 = system: DLD-1
DMS-114 = system: DMS-114
DMS-273 = system: DMS-273
EKVX = system: EKVX
HCC 2998 = system: HCC 2998
HCT-116 = system: HCT-116
HCT-15 = system: HCT-15
HL-60 = system: HL-60
HOP-62 = system: HOP-62
HOP-92 = system: HOP-92
HT-29 = system: HT-29
IGROV-1 = system: IGROV-1
K562 = system: K562
KM12 = system: KM12
LOX IMVI = system: LOX IMVI
LXFL 529 = system: LXFL 529
M14 = system: M14
M19-MEL = system: M19-MEL
MOLT-4 = system: MOLT-4
Malme-3M = system: Malme-3M
NCI-H23 = system: NCI-H23
NCI-H460 = system: NCI-H460
NCI-H522 = system: NCI-H522
OVCAR-3 = system: OVCAR-3
OVCAR-4 = system: OVCAR-4
OVCAR-8 = system: OVCAR-8
RPMI-8226 = system: RPMI-8226
RXF 393 = system: RXF 393
SF-268 = system: SF-268
SF-295 = system: SF-295
SF-539 = system: SF-539
SK-MEL-28 = system: SK-MEL-28
SK-MEL-2 = system: SK-MEL-2
SK-MEL-5 = system: SK-MEL-5
SK-OV-3 = system: SK-OV-3
SN12C = system: SN12C
SNB-19 = system: SNB-19
SNB-75 = system: SNB-75
SNB-78 = system: SNB-78
SW-620 = system: SW-620
TK-10 = system: TK-10
U-251 = system: U-251
UACC-257 = system: UACC-257
UACC-62 = system: UACC-62
UO-31 = system: UO-31
XF498 = system: XF498
ACHN = system: ACHN
KM-20L2 = system: KM-20L2
NCI-H226 = system: NCI-H226
OVCAR-5 = system: OVCAR-5
SR = system: SR

SMILES: O=C1CC2=CCCC2O1 (configuration not stated)
- GI50 (786-0): > 100 µM (inactive)
- GI50 (A498): > 100 µM (inactive)
- GI50 (A549): > 100 µM (inactive)
- GI50 (CAKI-1): > 100 µM (inactive)
- GI50 (CCRF-CEM): > 100 µM (inactive)
- GI50 (COLO 205): > 100 µM (inactive)
- GI50 (DLD-1): > 100 µM (inactive)
- GI50 (DMS-114): > 100 µM (inactive)
- GI50 (DMS-273): > 100 µM (inactive)
- GI50 (EKVX): > 100 µM (inactive)
- GI50 (HCC 2998): > 100 µM (inactive)
- GI50 (HCT-116): > 100 µM (inactive)
- GI50 (HCT-15): > 100 µM
- GI50 (HL-60): > 100 µM (inactive)
- GI50 (HOP-62): > 100 µM (inactive)
- GI50 (HOP-92): > 100 µM (inactive)
- GI50 (HT-29): > 100 µM (inactive)
- GI50 (IGROV-1): > 100 µM (inactive)
- GI50 (K562): > 100 µM (inactive)
- GI50 (KM12): > 100 µM (inactive)
- GI50 (LOX IMVI): > 100 µM (inactive)
- GI50 (LXFL 529): > 100 µM (inactive)
- GI50 (M14): > 100 µM (inactive)
- GI50 (M19-MEL): > 100 µM (inactive)
- GI50 (MOLT-4): > 100 µM (inactive)
- GI50 (Malme-3M): > 100 µM (inactive)
- GI50 (NCI-H23): > 100 µM (inactive)
- GI50 (NCI-H460): > 100 µM (inactive)
- GI50 (NCI-H522): > 100 µM (inactive)
- GI50 (OVCAR-3): > 100 µM (inactive)
- GI50 (OVCAR-4): > 100 µM (inactive)
- GI50 (OVCAR-8): > 100 µM (inactive)
- GI50 (RPMI-8226): > 100 µM (inactive)
- GI50 (RXF 393): > 100 µM (inactive)
- GI50 (SF-268): > 100 µM (inactive)
- GI50 (SF-295): > 100 µM (inactive)
- GI50 (SF-539): > 100 µM (inactive)
- GI50 (SK-MEL-28): > 100 µM (inactive)
- GI50 (SK-MEL-2): > 100 µM (inactive)
- GI50 (SK-MEL-5): > 100 µM (inactive)
- GI50 (SK-OV-3): > 100 µM (inactive)
- GI50 (SN12C): > 100 µM (inactive)
- GI50 (SNB-19): > 100 µM (inactive)
- GI50 (SNB-75): > 100 µM (inactive)
- GI50 (SNB-78): > 100 µM (inactive)
- GI50 (SW-620): > 100 µM (inactive)
- GI50 (TK-10): > 100 µM (inactive)
- GI50 (U-251): > 100 µM (inactive)
- GI50 (UACC-257): > 100 µM (inactive)
- GI50 (UACC-62): > 100 µM (inactive)
- GI50 (UO-31): > 100 µM (inactive)
- GI50 (XF498): > 100 µM (inactive)

SMILES: CCN(CC)C(=O)CCn1ccc(=O)[nH]c1=O
- GI50 (786-0): > 100 µM (inactive)
- GI50 (A549): > 100 µM (inactive)
- GI50 (ACHN): > 100 µM (inactive)
- GI50 (CCRF-CEM): > 100 µM (inactive)
- GI50 (COLO 205): > 100 µM (inactive)
- GI50 (DMS-114): > 100 µM (inactive)
- GI50 (DMS-273): > 100 µM (inactive)
- GI50 (EKVX): > 100 µM (inactive)
- GI50 (HCT-116): > 100 µM (inactive)
- GI50 (HCT-15): > 100 µM
- GI50 (HL-60): > 100 µM (inactive)
- GI50 (HOP-62): > 100 µM (inactive)
- GI50 (HT-29): > 100 µM (inactive)
- GI50 (IGROV-1): > 100 µM (inactive)
- GI50 (K562): > 100 µM (inactive)
- GI50 (KM-20L2): > 100 µM (inactive)
- GI50 (KM12): > 100 µM (inactive)
- GI50 (LOX IMVI): > 100 µM (inactive)
- GI50 (LXFL 529): > 100 µM (inactive)
- GI50 (M14): > 100 µM (inactive)
- GI50 (M19-MEL): > 100 µM (inactive)
- GI50 (MOLT-4): > 100 µM (inactive)
- GI50 (Malme-3M): > 100 µM (inactive)
- GI50 (NCI-H226): > 100 µM (inactive)
- GI50 (NCI-H23): > 100 µM (inactive)
- GI50 (NCI-H460): > 100 µM (inactive)
- GI50 (NCI-H522): > 100 µM (inactive)
- GI50 (OVCAR-3): > 100 µM (inactive)
- GI50 (OVCAR-4): > 100 µM (inactive)
- GI50 (OVCAR-5): > 100 µM (inactive)
- GI50 (OVCAR-8): > 100 µM (inactive)
- GI50 (RPMI-8226): > 100 µM (inactive)
- GI50 (RXF 393): > 100 µM (inactive)
- GI50 (SF-268): > 100 µM (inactive)
- GI50 (SF-295): > 100 µM (inactive)
- GI50 (SF-539): > 100 µM (inactive)
- GI50 (SK-MEL-28): > 100 µM (inactive)
- GI50 (SK-MEL-2): > 100 µM (inactive)
- GI50 (SK-MEL-5): > 100 µM (inactive)
- GI50 (SN12C): > 100 µM (inactive)
- GI50 (SNB-19): > 100 µM (inactive)
- GI50 (SNB-75): 43.1 µM (inactive)
- GI50 (SNB-78): > 100 µM (inactive)
- GI50 (SR): > 100 µM (inactive)
- GI50 (SW-620): > 100 µM (inactive)
- GI50 (TK-10): > 100 µM (inactive)
- GI50 (U-251): > 100 µM (inactive)
- GI50 (UACC-62): > 100 µM (inactive)
- GI50 (UO-31): > 100 µM (inactive)
- GI50 (XF498): > 100 µM (inactive)

SMILES: CCOC(=O)C(=O)Nc1c(CC)cccc1C(C)C
- GI50 (786-0): > 100 µM (inactive)
- GI50 (A498): > 100 µM (inactive)
- GI50 (A549): > 100 µM (inactive)
- GI50 (ACHN): > 100 µM (inactive)
- GI50 (CAKI-1): > 100 µM (inactive)
- GI50 (COLO 205): > 100 µM (inactive)
- GI50 (DLD-1): > 100 µM (inactive)
- GI50 (DMS-273): > 100 µM (inactive)
- GI50 (EKVX): > 100 µM (inactive)
- GI50 (HCC 2998): > 100 µM (inactive)
- GI50 (HCT-116): > 100 µM (inactive)
- GI50 (HCT-15): > 100 µM
- GI50 (HOP-62): > 100 µM (inactive)
- GI50 (HOP-92): > 100 µM (inactive)
- GI50 (HT-29): > 100 µM (inactive)
- GI50 (IGROV-1): > 100 µM (inactive)
- GI50 (KM-20L2): > 100 µM (inactive)
- GI50 (KM12): > 100 µM (inactive)
- GI50 (LOX IMVI): > 100 µM (inactive)
- GI50 (LXFL 529): > 100 µM (inactive)
- GI50 (M14): > 100 µM (inactive)
- GI50 (M19-MEL): > 100 µM (inactive)
- GI50 (Malme-3M): > 100 µM (inactive)
- GI50 (NCI-H226): > 100 µM (inactive)
- GI50 (NCI-H23): > 100 µM (inactive)
- GI50 (NCI-H460): > 100 µM (inactive)
- GI50 (OVCAR-3): > 100 µM (inactive)
- GI50 (OVCAR-4): > 100 µM (inactive)
- GI50 (OVCAR-5): > 100 µM (inactive)
- GI50 (OVCAR-8): > 100 µM (inactive)
- GI50 (RPMI-8226): > 100 µM (inactive)
- GI50 (RXF 393): > 100 µM (inactive)
- GI50 (SF-268): > 100 µM (inactive)
- GI50 (SF-295): > 100 µM (inactive)
- GI50 (SF-539): > 100 µM (inactive)
- GI50 (SK-MEL-28): > 100 µM (inactive)
- GI50 (SK-MEL-2): > 100 µM (inactive)
- GI50 (SK-OV-3): > 100 µM (inactive)
- GI50 (SN12C): > 100 µM (inactive)
- GI50 (SNB-19): > 100 µM (inactive)
- GI50 (SNB-75): > 100 µM (inactive)
- GI50 (SNB-78): > 100 µM (inactive)
- GI50 (SR): 0.0151 µM (active)
- GI50 (SW-620): > 100 µM (inactive)
- GI50 (TK-10): > 100 µM (inactive)
- GI50 (U-251): > 100 µM (inactive)
- GI50 (UACC-257): > 100 µM (inactive)
- GI50 (UACC-62): > 100 µM (inactive)
- GI50 (UO-31): > 100 µM (inactive)
- GI50 (XF498): > 100 µM (inactive)
